This is an account of results in ChEMBL document CHEMBL2150912, “Discovery of novel dihydroimidazothiazole derivatives as p53-MDM2 protein-protein interaction inhibitors: synthesis, biological evaluation and structure-activity relationships” (Bioorg Med Chem Lett, 2012).

Broadly, the IC50 is the concentration at which inhibition is half-maximal. A low value points to higher potency.

For this assay, the target named is E3 ubiquitin-protein ligase Mdm2 (Homo sapiens, UniProt Q00987). As to the kind of experiment: Inhibition of GST-tagged MDM2 binding to p53 by ELISA. In general terms: ELISA stands for enzyme-linked immunosorbent assay.
E3 ubiquitin-protein ligase Mdm2, sequence (Q00987 whole entry): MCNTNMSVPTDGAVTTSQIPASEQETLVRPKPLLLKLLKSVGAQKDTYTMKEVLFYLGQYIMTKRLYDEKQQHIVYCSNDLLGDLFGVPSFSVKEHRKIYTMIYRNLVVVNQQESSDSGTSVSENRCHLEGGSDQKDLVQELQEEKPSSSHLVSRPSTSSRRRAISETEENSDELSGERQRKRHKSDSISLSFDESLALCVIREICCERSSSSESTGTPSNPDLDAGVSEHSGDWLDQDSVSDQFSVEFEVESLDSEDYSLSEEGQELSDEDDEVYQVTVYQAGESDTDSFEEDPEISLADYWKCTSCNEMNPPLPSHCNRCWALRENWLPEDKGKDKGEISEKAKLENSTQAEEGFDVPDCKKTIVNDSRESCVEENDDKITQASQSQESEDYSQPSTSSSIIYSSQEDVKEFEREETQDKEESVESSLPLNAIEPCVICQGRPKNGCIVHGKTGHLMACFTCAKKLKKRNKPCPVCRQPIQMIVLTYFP
Regarding `COCC1=C(C(=O)N2CCNC(=O)C2)SC2=N[C@@H](c3ccc(Cl)cc3)[C@@H](c3ccc(Cl)cc3)N21` (racemic), the IC50 was 7100 nM.
Next, `CC1=C(C(=O)N2CCNC(=O)C2)SC2=N[C@@H](c3ccc(Cl)cc3)[C@@H](c3ccc(Cl)cc3)N21` (racemic): 2700 nM.
Consider `CCC1=C(C(=O)N2CCNC(=O)C2)SC2=N[C@@H](c3ccc(Cl)cc3)[C@@H](c3ccc(Cl)cc3)N21` (racemic), for which the IC50 is 1800 nM.
Next, `CC(C)C1=C(C(=O)N2CCNC(=O)C2)SC2=N[C@@H](c3ccc(Cl)cc3)[C@@H](c3ccc(Cl)cc3)N21` (racemic): 260 nM; `CCCC1=C(C(=O)N2CCNC(=O)C2)SC2=N[C@@H](c3ccc(Cl)cc3)[C@@H](c3ccc(Cl)cc3)N21` (racemic): 3100 nM.
To `O=C1CN(C(=O)C2=C(C3CC3)N3C(=N[C@@H](c4ccc(Cl)cc4)[C@H]3c3ccc(Cl)cc3)S2)CCN1` (racemic) belongs 9500 nM.
`CC(C)(C)C1=C(C(=O)N2CCNC(=O)C2)SC2=N[C@@H](c3ccc(Cl)cc3)[C@@H](c3ccc(Cl)cc3)N21` (racemic) displayed an IC50 of 3000 nM.
Next, `CC(=O)N1CCN(C(=O)C2=C(C(C)C)N3C(=N[C@@H](c4ccc(Cl)cc4)[C@H]3c3ccc(Cl)cc3)S2)CC1` (racemic): 840 nM; `CC(C)C1=C(C(=O)N2CCC(C(=O)N(C)C)CC2)SC2=N[C@@H](c3ccc(Cl)cc3)[C@@H](c3ccc(Cl)cc3)N21` (racemic): 4400 nM.
Turning to `CC(C)C1=C(C(=O)N2CCOCC2)SC2=N[C@@H](c3ccc(Cl)cc3)[C@@H](c3ccc(Cl)cc3)N21` (racemic), the IC50 was found to be 340 nM.
Regarding `CC(C)C1=C(C(=O)N2CCNC(=O)CC2)SC2=N[C@@H](c3ccc(Cl)cc3)[C@@H](c3ccc(Cl)cc3)N21` (racemic), the IC50 turned out to be 1100 nM.
Next, `CC(C)C1=C(C(=O)N2CCN(CCO)CC2)SC2=N[C@@H](c3ccc(Cl)cc3)[C@@H](c3ccc(Cl)cc3)N21` (racemic): 1800 nM.
Next, `CC(C)C1=C(C(=O)N2CCN(C)CC2)SC2=N[C@@H](c3ccc(Cl)cc3)[C@@H](c3ccc(Cl)cc3)N21` (racemic): 1200 nM.
To `CC(C)C1=C(C(=O)N2C[C@@H](C)N[C@@H](C)C2)SC2=N[C@@H](c3ccc(Cl)cc3)[C@@H](c3ccc(Cl)cc3)N21` (racemic) belongs 140 nM.
Regarding `CC(C)C1=C(C(=O)N2CCNC(=O)C2)SC2=NC(c3ccc(Cl)cc3)C(c3ccc(Cl)cc3)N21` (single isomer, unassigned; (+)), the half-maximal inhibitory concentration (IC50) stood at 160 nM.
Next, `CC(C)C1=C(C(=O)N2CCNC(=O)C2)SC2=NC(c3ccc(Cl)cc3)C(c3ccc(Cl)cc3)N21` (single isomer, unassigned; (-)): 11900 nM.
